Assay results as given in patent US10513539B2, “Hydrophobic modified peptides and their use for liver specific targeting” (Ruprecht-Karls-Universitat Heidelberg, priority 2011, dated 2019).

Tests used:
[1] = system: primary mouse hepatocytes
Description: Next it was analyzed if the modified doxorubicin is still cytotoxic to cells. In this experiment primary mouse hepatocytes isolated from C57BL/6 mice as described in Galle et al., (1994) (37) were incubated and reseeded in 96 well flat bottom plates to form a confluent cell layer. […] The cells were then incubated for 12 h (FIG. 6A) or 24 h (FIG. 6B), respectively. After incubation an MTT assay (Cell proliferation Kit, Roche Mannheim Germany) was performed as indicated by the manufacturer's instructions to determine remaining cell viability. The results are shown in FIGS. 6A and 6B (Cell Viability Assay).

[2] = Description: The peptide stearoyl-[K(DOTA[^68Ga])]3-[…] (SEQ ID NO:15)-amide was dissolved in citrate buffer (pH 8.0)+4% BSA and injected i.v. in the tail vene of tumour bearing WAG/Rij rats. The rats were orthopically injected with 1×10^6 syngenic colon carcinoma cells (CC531 cells) 10 days prior to the measurements. At the day of measurement the rats received the peptide in a concentration of 400 nmol/kg body weight. During the experiments the rats were anaesthetised by isoflurane and kept at 37° C.

Row | SMILES | cytotoxic effects [1] | cytotoxic activity (HepG2 cells) | enrichment in the liver (PET) ([2]; 400 nmol/kg i.v., WAG/Rji rat, five minutes post i.v. injection (FIG. 4A)) | specificity of staining, liver tissue vs tumor tissue (merged PET images) ([2]; tumour bearing rat (CC531 colon carcinoma), FIG. 4C)
1 | COc1cccc2c1C(=O)c1c(O)c3c(c(O)c1C2=O)C[C@@](O)(C(=O)CO)C[C@@H]3O[C@H]1C[C@H](N)[C@H](O)[C@H](C)O1 [doxorubicin] | significant cytotoxic effects | significant cytotoxicity | – | –
2 | CCCCCCCCCCCCCCCCCC(=O)N[C@@H](CCCCNC(=O)CN1CCN(CC(=O)O)CCN(CC(=O)O)CCN(CC(=O)O)CC1)C(=O)N[C@@H](CCCCNC(=O)CN1CCN(CC(=O)O)CCN(CC(=O)O)CCN(CC(=O)O)CC1)C(=O)N[C@@H](CCCCNC(=O)CN1CCN(CC(=O)O)CCN(CC(=O)O)CCN(CC(=O)O)CC1)C(=O)N[C@@H](CC(N)=O)C(=O)N[C@@H](CC(C)C)C(=O)N[C@@H](CO)C(=O)N[C@H](C(=O)N[C@@H](CO)C(=O)N[C@@H](CC(N)=O)C(=O)N1CCC[C@H]1C(=O)N[C@@H](CC(C)C)C(=O)NCC(=O)N[C@@H](Cc1ccccc1)C(=O)N[C@@H](Cc1ccccc1)C(=O)N1CCC[C@H]1C(=O)N[C@@H](CC(=O)O)C(=O)N[C@@H](Cc1c[nH]cn1)C(=O)N[C@@H](CCC(N)=O)C(=O)N[C@@H](CC(C)C)C(=O)N[C@@H](CC(=O)O)C(=O)N1CCC[C@H]1C(N)=O)[C@@H](C)O | – | – | Specific enrichment | staining only liver tissue but not the tumor tissue
